Measurements taken from patent publication US20240108740A1, “THERAPEUTIC COMPOSITIONS INCLUDING SPN10 AND USES THEREOF” (Stealth BioTherapeutics Inc., priority 2022, published 2024).
Residues, ends and D or L forms follow the SMILES beside them.

Legend:
N2A cells [1] = test: Example 23: caspase activity (FLICA kit); type: cell-based; design: dose or concentration left out as unconfirmed; details: 12 hours
Protocol: N2A cells will be grown on 96-well plates, treated with t-BHP (0.05 mM) in the presence of vehicle, peptide conjugates, aromatic-cationic peptides, or SPN10(s) with or without aromatic-cationic peptides at 37° C. for 12-24 hours. All treatments will be carried out in quadruplicate. N2A cells will be incubated with t-BHP ([…]) alone or in the presence of peptide conjugates, aromatic-cationic peptides, or SPN10(s) with or without aromatic-cationic peptides at 37° C. for 12 hours. Cells will be gently lifted from the plates with a cell detachment solution (Accutase, Innovative Cell Technologies, Inc., San Diego, CA, U.S.A.) and will be washed twice in PBS. Caspase activity will be assayed using a FLICA kit (Immunochemistry Technologies LLC, Bloomington, MN). According to the manufacturer's recommendation, cells will be resuspended (approx. 5×10^6 cells/mL) in PBS and labeled with pan-caspase inhibitor FAM-VAD-FMK for 1 hour at 37° C. under 5% CO2 while protected from light. Cells will then be rinsed to remove the unbound reagent and fixed. Fluorescence intensity in the cells will be measured by a laser scanning cytometer (Beckman-Coulter XL, Beckman Coulter, Inc., Fullerton, CA, U.S.A.) using the standard emission filters for green (FL1). For each run, 10,000 individual events will be collected and stored in list-mode files for off-line analysis.

Wild-type (WT) mice = test: Example 2: acute cerebral ischemia (occlusion of the right middle cerebral artery); type: in vivo, mouse
Protocol: Cerebral ischemia will be induced by occlusion of the right middle cerebral artery for 30 min. Wild-type (WT) mice will be given either saline vehicle (Veh) (i.p., n=9), peptide conjugates (2 mg/kg or 5 mg/kg, i.p., n=6), aromatic-cationic peptides (e.g., an equivalent molar dose of aromatic-cationic peptide based on the concentration of the aromatic-cationic peptide administered in the peptide conjugate treatment group), SPN10(s) (e.g., an equivalent molar dose of SPN10 based on the concentration of SPN10 administered in the peptide conjugate treatment group), or SPN10(s) in combination with aromatic-cationic peptides (e.g., an equivalent molar dose of SPN10 based on the concentration of SPN10 administered in the peptide conjugate treatment group and an equivalent molar dose of aromatic-cationic peptide based on the concentration of aromatic-cationic peptide administered in the peptide conjugate treatment group) at 0, 6, 24 and 48 hours after ischemia. Mice will be sacrificed 3 days after ischemia. Brains will be frozen, sectioned, and stained using Nissl stain. Infarct volume and hemispheric swelling will be determined using an image analyzer. Data will be analyzed by one-way ANOVA with posthoc analysis.

N2A cells [2] = test: Example 26: mitochondrial membrane potential and ROS accumulation after t-BHP (TMRM, DCF); type: cell-based; details: 0.1 mM t-BHP, 6 hours
Protocol: N2A cells cultured in a glass dish will be treated with 0.1 mM t-BHP alone or in the presence of peptide conjugates (1 nM); aromatic-cationic peptides (an equivalent molar dose of aromatic-cationic peptide based on the concentration of the aromatic-cationic peptide administered in the peptide conjugate treatment group); SPN10(s) (an equivalent molar dose of SPN10 based on the concentration of SPN10 administered in the peptide conjugate treatment group) or SPN10(s) in combination with aromatic-cationic peptides (e.g., an equivalent molar dose of SPN10 based on the concentration of SPN10 administered in the peptide conjugate treatment group and an equivalent molar dose of aromatic-cationic peptide based on the concentration of aromatic-cationic peptide administered in the peptide conjugate treatment group) for 6 hours. Cells will then be loaded with 10 μM dichlorofluorescin (DCF) (ex/em=485/530) for 30 minutes at 37° C., 5% CO2. Cells will be washed 3 times with HBSS, stained with 20 nM of Mitotracker TMRM (ex/em=550/575 nm) for 15 minutes at 37° C., and examined by confocal laser scanning microscopy.

murine burn injury model = test: Example 48: skeletal muscle redox state after burn injury (nitroxide EPR); type: in vivo, mouse; details: 6-hour time point; i.p. 30 minutes before and immediately after burn
Protocol: The redox state of the gastrocnemius muscle immediately below a local cutaneous burn (90° C. for 3 sec) will be evaluated by nitroxide EPR. It is anticipated that the redox state in the muscle will be compromised by burn injury, with the most dramatic effect at 6 hours post-burn.
Peptide conjugates (3 mg/kg), aromatic-cationic peptides (an equivalent molar dose of aromatic-cationic peptide based on the concentration of the aromatic-cationic peptide administered in the peptide conjugate treatment group), SPN10(s) (an equivalent molar dose of SPN10 based on the concentration of SPN10 administered in the peptide conjugate treatment group) or SPN10(s) in combination with aromatic-cationic peptides (e.g., an equivalent molar dose of SPN10 based on the concentration of SPN10 administered in the peptide conjugate treatment group and an equivalent molar dose of aromatic-cationic peptide based on the concentration of aromatic-cationic peptide administered in the peptide conjugate treatment group) will be administered i.p. 30 minutes before burn, and immediately after burn.

neonatal cardiomyocytes = test: Example 57: Ang II-induced mitochondrial ROS (Mitosox, flow cytometry); type: cell-based, mouse; details: Angiotensin II 1 μM, 3 hours
Protocol: Ventricles from mouse neonates younger than 72 hours will be dissected, minced, and enzymatically digested with Blendzyme 4 (45 mg/mL, Roche). After enzymatic digestion, cardiomyocytes will be enriched using differential pre-plating for 2 hours, and seeded on fibronectin-coated culture dishes for 24 hours in DMEM (Gibco) with 20% Fetal Bovine Serum (Sigma) and 25 μM Arabinosylcytosine (Sigma). Cardiomyocytes will be stimulated with Angiotensin II (1 μM) for 3 hours in serum-free DMEM containing 0.5% insulin transferrin-selenium (Sigma), 2 mM glutamine, and 1 mg/mL BSA. […] Samples will be analyzed using excitation/emission of 488/625 nm by flow cytometry. Flow data will be analyzed using FCS Express (De Novo Software, Los Angeles, CA, U.S.A.), and presented as histogram distributions of Mitosox fluorescence intensity.

N=C(N)NCCC[C@H](NC(=O)[C@@H](N)Cc1c[nH]c2ccccc12)C(=O)N[C@@H](Cc1c[nH]c2ccccc12)C(=O)N[C@@H](CCCCN)C(N)=O [SPN10, H-L-Trp-L-Arg-L-Trp-L-Lys-NH2] (H-WRWK-NH2)
increase in caspase activity by t-BHP (N2A cells [1]): dose-dependently inhibited | depletion of GSH in the ipsilateral cortex (Wild-type (WT) mice; 2 mg/kg i.p. at 0, 6, 24 and 48 hours): significantly be reduced | infarct volume and hemispheric swelling (Wild-type (WT) mice; treatment at 0, 6, 24 and 48 hours after 30 minute occlusion, compared to saline): significant reduction in infarct volume and hemispheric swelling | ROS accumulation (DCF) (N2A cells [2]): reduce ROS accumulation | mitochondrial depolarization (TMRM) (N2A cells [2]): prevent mitochondrial depolarization | rate of nitroxide reduction in muscle beneath the burn (murine burn injury model): significantly increase the rate of nitroxide reduction | Ang II-induced Mitosox fluorescence (mitochondrial ROS) (neonatal cardiomyocytes): reduce Ang II-induced fluorescence to the level similar to that of saline-treated control cardiomyocytes
